Structures can show the parent of a compound that is named as a salt. Where two headings read alike, the source gives them in different places.
Assays:
[1] = ref FDA product labeling; cited from earlier work
[2] = cited from earlier work
[3] = system: isolated rat liver mitochondria
RCC I = RCC I activity in submitochondrial particles; format: biochemical, rat; parameters: key to RCC I at 10XCmax / RCC I at 100XCmax / RCC I at 50XCmax / RCC I at 30XCmax / RCC I at 20XCmax: activity relative to DMSO-treated controls (control set as 1 = 100%); details: 10XCmax; relative to DMSO treated samples
Procedure: (§1) KIs were incubated with submitochondrial particles (1 mg/ml) for 15 min and then RCC I–V activities measured. […] The activities of DMSO-treated samples (controls) were set as 1. […] The difference between the activity from rotenone-containing buffer and rotenone-absent buffer was considered as RCC I activity. […] For measuring RCC I/V and II activity, the changes in absorbance at 340 and 600 nm, respectively, were determined every 1 min for 6 min. For measuring RCC III and RCC IV, the changes in absorbance at 550 nm were measured every 10 s for 2 min.

[4] = system: isolated rat liver mitochondria; experiment: Mitochondrial ROS production (CM-H2DCFDA)
[5] = system: isolated rat liver mitochondria; experiment: Mitochondrial inner membrane potential (MMP), Rhodamine 123; format: biochemical; details: difference in signal between KI and DMSO treated samples at the end of experiments
From the text: Fig. 3 KI effects on mitochondrial inner membrane potential (MMP). […] In a, c, data are means and standard derivations from three separate experiments. *p < 0.05 as compared to DMSO-treated samples at the end of experiments. In b, data are means of two independent experiments

RCC II = target: T1, RCC II (Rattus norvegicus, UniProt P21913+Q641Z9+Q6PCT8+Q920L2); experiment: RCC II activity in submitochondrial particles; format: biochemical; parameters: key: activity relative to DMSO-treated controls (control set as 1 = 100%); details: relative to DMSO treated samples
T1 construct: Submitochondrial particles were prepared by subjecting the intact mitochondria to three successive freeze–thaw cycles; from tissue; host or cells: rat liver mitochondria, used as submitochondrial particles
Procedure: as §1

[6] = system: isolated rat liver mitochondria; experiment: Mitochondrial swelling (absorbance at 535 nm); format: biochemical; details: difference in signal between KI and DMSO treated samples at the end of experiments; on Swelling 5XCmax: key: 0 indicates that the drug had no effects (negative)
RCC V = RCC V activity in submitochondrial particles; format: biochemical, rat; details: relative to DMSO treated samples; on RCC V at 5XCmax: key: 0 indicates that the drug had no effects (negative)
Procedure: as §1

RCC III = RCC III activity in submitochondrial particles; format: biochemical, rat; parameters: key to RCC III at 100XCmax: activity relative to DMSO-treated controls (control set as 1 = 100%); details: 100XCmax; relative to DMSO treated samples
Procedure: as §1

[7] = system: isolated rat liver mitochondria; experiment: Mitochondrial oxygen consumption (glutamate/malate or succinate driven, state 4 and state 3); format: biochemical; details: DMSO treated samples set as 1; on State 3 respiration driven by succinate at 10XCmax: key: 0 indicates that the drug had no effects (negative); on State 3 respiration driven by succinate at 1XCmax: key: 0 indicates that the drug had no effects (negative)
Procedure: Rats were anesthetized by an intraperitoneal injection of Nembutal and the liver perfused with PBS to remove the blood. The liver was then cut into small pieces and homogenized using a Dounce type homogenizer in the ice-cold isolation buffer (IB) containing 200 mM sucrose, 10 mM Tris-MOPS, 1 mM EGTA (pH 7.4). The sample was then centrifuged at 600g for 10 min. The supernatant was further centrifuged at 7500g for 10 min, and the pellets was washed once with the IB and centrifuged again at 7500g for 10 min to collect mitochondria. […] Before drug treatment, the protein concentration was adjusted to 1 mg/ml using appropriate buffer. […] Briefly, mitochondrial and cytosolic fractions from four different preparations using four rats were diluted using the Laemmli protein loading buffer and subject to SDS-PAGE with 4–20% gradient gels. The proteins were blotted to PVDF membranes and detected using antibodies against GAPDH, ATP5A, UQCRC2, SDHB, and NDUFB8.
The aliquoted stock solutions were kept for less than one month and each tube was used only once. The KIs were added to the mitochondria at 1:1000 dilutions. […] The Cmax data were from clinical trials which used FDA recommend dosages, route of administration, and duration. […] The final concentration of DMSO for drug treatment was always 0.1%, and control treatments were 0.1% DMSO.
Briefly, mitochondria were incubated with the KIs for 5 min, and then split evenly and loaded to the sample tubes of two Oxytherm systems (Hansatech Instruments Ltd), with one system used for measuring glutamate/malate driven respiration and the other succinate-driven respiration, both of which were defined as state 4 respiration. After 3 min, ADP was added to measure the maximal oxygen consumption rate, which was defined as state 3 respiration. […] The oxygen consumption rate of DMSO-treated samples (controls) was set as 1.

RCC IV = RCC IV activity in submitochondrial particles; format: biochemical, rat; parameters: key to RCC IV at 50XCmax / RCC IV at 100XCmax: activity relative to DMSO-treated controls (control set as 1 = 100%); details: 50XCmax; relative to DMSO treated samples; in %
Procedure: as §1

[8] = parameters: method as in product labeling; details: ref product labeling, cited from earlier work
[9] = human therapeutic Cmax at FDA recommended dosages, ref product labeling and drug approval packages at the official FDA website
[10] = positive control alamethicin treated samples
[11] = read-out: Cmax at µM, therapeutic maximal blood concentration, ref product labeling
[12] = therapeutic maximal blood concentration, ref product labeling

T1 sequence (Q920L2 35-656): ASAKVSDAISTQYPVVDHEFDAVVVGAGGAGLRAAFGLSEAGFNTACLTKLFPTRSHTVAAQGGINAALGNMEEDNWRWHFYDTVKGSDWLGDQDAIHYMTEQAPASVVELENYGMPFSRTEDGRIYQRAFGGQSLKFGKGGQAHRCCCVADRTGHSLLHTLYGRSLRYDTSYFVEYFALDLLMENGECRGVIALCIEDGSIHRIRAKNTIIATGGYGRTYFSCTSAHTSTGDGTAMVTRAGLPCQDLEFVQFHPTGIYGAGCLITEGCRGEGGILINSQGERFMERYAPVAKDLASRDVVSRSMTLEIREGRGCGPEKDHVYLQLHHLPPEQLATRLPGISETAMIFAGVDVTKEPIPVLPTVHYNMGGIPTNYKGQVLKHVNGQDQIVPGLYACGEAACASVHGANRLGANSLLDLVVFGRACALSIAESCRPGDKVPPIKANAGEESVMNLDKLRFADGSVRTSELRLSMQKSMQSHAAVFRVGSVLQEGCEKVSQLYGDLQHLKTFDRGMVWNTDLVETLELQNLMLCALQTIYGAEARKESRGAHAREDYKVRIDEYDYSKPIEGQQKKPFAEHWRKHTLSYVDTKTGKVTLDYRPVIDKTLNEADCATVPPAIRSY
T1 sequence (P21913 31-282): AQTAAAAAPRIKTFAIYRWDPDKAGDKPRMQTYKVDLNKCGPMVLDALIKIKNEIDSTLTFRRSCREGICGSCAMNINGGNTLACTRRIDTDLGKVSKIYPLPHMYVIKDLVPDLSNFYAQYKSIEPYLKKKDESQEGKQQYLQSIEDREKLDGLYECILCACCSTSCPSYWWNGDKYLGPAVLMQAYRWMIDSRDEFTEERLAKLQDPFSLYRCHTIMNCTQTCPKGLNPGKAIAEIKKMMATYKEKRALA
T1 sequence (Q641Z9 1-169): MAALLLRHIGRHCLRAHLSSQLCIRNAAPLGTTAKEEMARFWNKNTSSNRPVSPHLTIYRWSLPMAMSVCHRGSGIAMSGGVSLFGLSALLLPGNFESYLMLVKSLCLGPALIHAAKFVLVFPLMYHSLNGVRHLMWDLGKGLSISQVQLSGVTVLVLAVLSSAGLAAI
T1 sequence (Q6PCT8 57-159): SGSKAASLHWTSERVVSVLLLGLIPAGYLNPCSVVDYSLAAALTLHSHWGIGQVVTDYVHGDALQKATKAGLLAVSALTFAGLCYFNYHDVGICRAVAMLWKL

CC(=O)c1c(C)c2cnc(Nc3ccc(N4CCNCC4)cn3)nc2n(C2CCCC2)c1=O [Palbociclib]
DILI potential (based on labeling) [1]: 0 | Cmax [2, 9]: 0.24 µM

C[C@@H]1CCN(C(=O)CC#N)C[C@@H]1N(C)c1ncnc2[nH]ccc12 [tofacitinib citrate]
Cytochrome c release 1XCmax [3, 10]: 0 | Cytochrome c release 2.5XCmax [3, 10]: 0 | Cytochrome c release 5XCmax [3, 10]: 0 | Cytochrome c release 10XCmax [3, 10]: 0 | Cytochrome c release 20XCmax ([3]; 20XCmax, positive control alamethicin treated samples): 0 | Cytochrome c release 30XCmax ([3]; 30XCmax, positive control alamethicin treated samples): 0 | Cytochrome c release 50XCmax ([3]; 50XCmax, positive control alamethicin treated samples): 0 | Cytochrome c release 100XCmax ([3]; 100XCmax, positive control alamethicin treated samples): 7.22±1.11 percentage of the positive control group | RCC I at 10XCmax (RCC I): 0 | ROS measured by CM-H2DCFDA at 1XCmax ([4]; DMSO treated samples set as 1): 0 | ROS measured by CM-H2DCFDA at 2.5XCmax ([4]; DMSO treated samples set as 1): 0 | ROS measured by CM-H2DCFDA at 5XCmax ([4]; DMSO treated samples set as 1): 0 | ROS measured by CM-H2DCFDA at 10XCmax ([4]; DMSO treated samples set as 1): 0 | ROS measured by CM-H2DCFDA at 20XCmax ([4]; 20XCmax, DMSO treated samples set as 1): 0 | ROS measured by CM-H2DCFDA at 30XCmax ([4]; 30XCmax, DMSO treated samples set as 1): 0 | ROS measured by CM-H2DCFDA at 50XCmax ([4]; 50XCmax, DMSO treated samples set as 1): 0 | ROS measured by CM-H2DCFDA at 100XCmax ([4]; 100XCmax, DMSO treated samples set as 1): 0 | MMP measured by Rhodamine 123 at 1XCmax [5]: 0 | MMP measured by Rhodamine 123 at 2.5XCmax [5]: 0 | MMP measured by Rhodamine 123 at 5XCmax [5]: 0 | MMP measured by Rhodamine 123 at 10XCmax [5]: 0 | MMP measured by Rhodamine 123 at 20XCmax ([5]; 20XCmax): 0 | MMP measured by Rhodamine 123 at 30XCmax ([5]; 30XCmax): 0 | MMP measured by Rhodamine 123 at 50XCmax ([5]; 50XCmax): 0 | MMP measured by Rhodamine 123 at 100XCmax ([5]; 100XCmax): 0 | RCC II at 1.0XCmax (RCC II): 0 | RCC II at 2.5XCmax (RCC II): 0 | RCC II at 5XCmax (RCC II): 0 | RCC II at 10XCmax (RCC II): 0 | RCC II at 20XCmax (RCC II; 20XCmax): 0 | RCC II at 30XCmax (RCC II; 30XCmax): 0 | RCC II at 50XCmax (RCC II; 50XCmax): 0 | RCC II at 100XCmax (RCC II; 100XCmax): 0 | Swelling 1XCmax [6]: 0 | Swelling 2.5XCmax [6]: 0 | Swelling 5XCmax [6]: 0 | Swelling 10XCmax [6]: 0 | Swelling 20XCmax ([6]; 20XCmax): 0 | Swelling 30XCmax ([6]; 30XCmax): 0 | Swelling 50XCmax ([6]; 50XCmax): 0 | Swelling 100XCmax ([6]; 100XCmax): 0 | RCC V at 5XCmax (RCC V): 0 | RCC V at 50XCmax (RCC V; 50XCmax): 0 | Cmax [2, 11]: 0.089 µM | Cmax [2, 12]: 45.1 ng/mL | RCC III at 100XCmax (RCC III): 0 | State 3 respiration driven by succinate at 1XCmax [7]: 0 | State 4 respiration driven by succinate at 1XCmax [7]: 0 | State 3 respiration driven by succinate at 2.5XCmax [7]: 0 | State 4 respiration driven by succinate at 2.5XCmax [7]: 0 | State 3 respiration driven by succinate at 5XCmax [7]: 0 | State 4 respiration driven by succinate at 5XCmax [7]: 0 | State 3 respiration driven by succinate at 10XCmax [7]: 0 | State 4 respiration driven by succinate at 10XCmax [7]: 0 | State 3 respiration driven by succinate at 20XCmax ([7]; 20XCmax): 0 | State 4 respiration driven by succinate at 20XCmax ([7]; 20XCmax): 0 | State 3 respiration driven by succinate at 30XCmax ([7]; 30XCmax): 0 | State 4 respiration driven by succinate at 30XCmax ([7]; 30XCmax): 0 | State 3 respiration driven by succinate at 50XCmax ([7]; 50XCmax): 0 | State 4 respiration driven by succinate at 50XCmax ([7]; 50XCmax): 0 | State 3 respiration driven by succinate at 100XCmax ([7]; 100XCmax): 0 | State 4 respiration driven by succinate at 100XCmax ([7]; 100XCmax): 0 | RCC IV at 50XCmax (RCC IV): 0

[Ca+2].[Cl-].[Cl-] [calcium chloride]
increase in ROS production ([4]; positive control, 100 µM CaCl2, DMSO-treated = 1): threefold

Cc1cn(-c2cc(NC(=O)c3ccc(C)c(Nc4nccc(-c5cccnc5)n4)c3)cc(C(F)(F)F)c2)cn1 [Nilotinib]
Cytochrome c release 1XCmax [3, 10]: 0 | Cytochrome c release 2.5XCmax [3, 10]: 0 | Cytochrome c release 5XCmax [3, 10]: 0 | Cytochrome c release 10XCmax [3, 10]: 0 | RCC I at 10XCmax (RCC I): 0 | ROS measured by CM-H2DCFDA at 1XCmax ([4]; DMSO treated samples set as 1): 0 | ROS measured by CM-H2DCFDA at 2.5XCmax ([4]; DMSO treated samples set as 1): 0 | ROS measured by CM-H2DCFDA at 5XCmax ([4]; DMSO treated samples set as 1): 0 | ROS measured by CM-H2DCFDA at 10XCmax ([4]; DMSO treated samples set as 1): 0 | Labeling for cardiotoxicity ([8]; BBW: black box warning, W&P: Warnings and Precautions): BBW: QT Interval Prolongation | Potential for cardiotoxicity (based on labeling) [8]: 1 | MMP measured by Rhodamine 123 at 1XCmax [5]: 0 | MMP measured by Rhodamine 123 at 2.5XCmax [5]: 0 | MMP measured by Rhodamine 123 at 5XCmax [5]: 0 | MMP measured by Rhodamine 123 at 10XCmax [5]: 0 | RCC II at 1.0XCmax (RCC II): 0 | RCC II at 2.5XCmax (RCC II): 0 | RCC II at 5XCmax (RCC II): 0 | RCC II at 10XCmax (RCC II): 0 | Swelling 1XCmax [6]: 0 | Swelling 2.5XCmax [6]: 0 | Swelling 5XCmax [6]: 0 | Swelling 10XCmax [6]: 0 | RCC V at 5XCmax (RCC V): 0 | Cmax [2, 9]: 4.27 µM | Cmax [2, 11]: 4.27 µM | Cmax [2, 12]: 2260 ng/mL | State 3 respiration driven by succinate at 1XCmax [7]: 0 | State 4 respiration driven by succinate at 1XCmax [7]: 0 | State 3 respiration driven by succinate at 2.5XCmax [7]: 0 | State 4 respiration driven by succinate at 2.5XCmax [7]: 0 | State 3 respiration driven by succinate at 5XCmax [7]: 0 | State 4 respiration driven by succinate at 5XCmax [7]: 0 | State 3 respiration driven by succinate at 10XCmax [7]: 0 | State 4 respiration driven by succinate at 10XCmax [7]: 0

CNS(=O)(=O)C[C@H]1CC[C@H](N(C)c2ncnc3[nH]ccc23)CC1 [oclacitinib]
cytochrome c release from intact mitochondria [3]: significant cytochrome c release

Reference: PMC5515969, “Effects of 31 FDA approved small-molecule kinase inhibitors on isolated rat liver mitochondria” (Archives of Toxicology, 2016)
